One may read the EC50 as the concentration needed to bring the measured effect to its halfway point.

Results on twelve compounds are retold here after patent publication US20100160369A1, “S1P1 Agonists and Methods of Making And Using” (EXELIXIS, INC., priority 2008, published 2010).

Assay [1] deals with T1, S1P1 (Homo sapiens, UniProt P21453). The experiment in a line: CNG cAMP Assay (Assay 1). The note with it: read-out: Assay 1 EC50. Also on record: host or cells: HEK293 cells expressing the CNG channel. The class given is cell-based. Summed up: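 cAMP-gated CNG membrane-potential read-out (350/590 nm, T90/T0 ratio) in S1P1/CNG HEK293 cells after 90 min with compound plus NECA 500 nM, S1P 10 nM (EC95), Ro 20-1724 25 μM. Ten 3-fold points from 10 μM, 1.8% DMSO; percent activity vs NECA-only control gives EC50.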
Target sequence in this assay (P21453 whole entry): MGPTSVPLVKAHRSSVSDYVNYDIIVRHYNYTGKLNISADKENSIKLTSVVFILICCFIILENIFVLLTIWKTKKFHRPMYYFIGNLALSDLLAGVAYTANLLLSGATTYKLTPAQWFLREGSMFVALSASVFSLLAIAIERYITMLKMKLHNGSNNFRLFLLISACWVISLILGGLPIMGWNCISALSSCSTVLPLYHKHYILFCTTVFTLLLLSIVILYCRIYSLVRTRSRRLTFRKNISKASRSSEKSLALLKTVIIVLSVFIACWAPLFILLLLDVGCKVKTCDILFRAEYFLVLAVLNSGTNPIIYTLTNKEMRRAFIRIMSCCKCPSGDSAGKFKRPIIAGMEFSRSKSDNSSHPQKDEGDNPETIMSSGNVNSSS

Assay [2] deals with T1, S1P1. The experiment in a line: Tango β-arrestin Recruitment Assay in HEK293 cells (Assay 2a). The class given is cell-based. Also noted: linker with TEV protease (N1a) cleavage site (C); host or cells: HEK293, transiently transfected. The note with it: Tango β-arrestin Recruitment Assay, read-out: Assay 2a EC50. The method, boiled down: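 Agonist-driven β-arrestin2–TEV recruitment releases tTA to drive luciferase in transiently transfected HEK293 cells. Ten 3-fold dilutions from 10 μM top (1% DMSO), 16–18 h at 37 °C; EC50 fitted to percent activity versus DMSO background and 5 μM S1P efficacy control.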
Target sequence in this assay (P21453 whole entry): as above
Target sequence in this assay (P32121 whole entry partner): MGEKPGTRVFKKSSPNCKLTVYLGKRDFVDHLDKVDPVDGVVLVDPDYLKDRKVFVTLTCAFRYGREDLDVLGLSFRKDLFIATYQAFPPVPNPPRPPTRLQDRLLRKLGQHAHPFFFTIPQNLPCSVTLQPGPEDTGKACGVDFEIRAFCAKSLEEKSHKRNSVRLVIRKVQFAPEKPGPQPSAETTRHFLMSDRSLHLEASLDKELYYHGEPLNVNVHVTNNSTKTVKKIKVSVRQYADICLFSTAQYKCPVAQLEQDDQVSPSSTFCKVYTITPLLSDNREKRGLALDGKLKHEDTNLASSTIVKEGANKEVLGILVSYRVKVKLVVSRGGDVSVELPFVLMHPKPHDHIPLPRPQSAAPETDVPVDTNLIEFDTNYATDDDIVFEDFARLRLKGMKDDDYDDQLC
A general note: Recruitment of arrestin is a read-out of receptor activation apart from second messengers.

For another assay, the target named is T2, hS1P1R (hEdg1) (Homo sapiens, UniProt P21453).
T2 construct: purchased Lonza
T2 sequence (P21453 whole entry): as the sequence (P21453 whole entry) above
In words: hS1P1R GTPγS Binding Assay (Assay 3a). Format: biochemical. The method, boiled down:
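Human S1P1 receptor membranes (4 μg) incubated 1 h at room temperature with 30 μM GDP, 0.1 nM [35S]GTPγS, 0.25% fatty-acid-free BSA and serially diluted agonist in pH 7.9 Tris buffer with Mg2+ and EGTA. Bound radioactivity read by WGA SPA after a further 1 h; EC50 reported unless noted.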

For `O=C(O)CCc1cc(Cl)c(-c2noc(-c3cn4cc(C(F)(F)F)cc(Cl)c4n3)n2)cc1F` [Entry 24], the EC50 on S1P1 [1], at S1P1 [2] and at hS1P1R (hEdg1) was ≤ 0.1 µM each time.
For the compound `O=C(O)CCc1cc(Cl)c(-c2noc(-c3cn4cc(C(F)(F)F)cc(Br)c4n3)n2)cc1F` [Entry 49], the EC50 on S1P1 [1], on S1P1 [2] and on hS1P1R (hEdg1) was ≤ 0.1 µM each time.
For the compound `Cc1cc(CCC(=O)O)c(Cl)cc1-c1noc(-c2cn3cc(C(F)(F)F)cc(Cl)c3n2)n1` [Entry 56], the 50% effective concentration (EC50) on S1P1 [1], on S1P1 [2] and at hS1P1R (hEdg1) was ≤ 0.1 µM in each case.
In the case of `C[C@H](CO)Oc1cc(Cl)c(-c2noc(-c3cn4cc(C(F)(F)F)cc(Cl)c4n3)n2)cc1F` [Example 93, (2R)-2-[(5-chloro-4-{5-[8-chloro-6-(trifluoromethyl)imidazo[1,2-a]pyridin-2-yl]-1,2,4-oxadiazol-3-yl}-2-fluorophenyl)oxy]propan-1-ol], the EC50 at S1P1 [1], on S1P1 [2] and at hS1P1R (hEdg1) was ≤ 0.1 µM each time.
Consider `O=C(O)CCc1cc(Cl)c(-c2nnc(-c3cn4cc(C(F)(F)F)cc(Cl)c4n3)s2)cc1F` [Example 176, 3-(5-chloro-4-{5-[8-chloro-6-(trifluoromethyl)imidazo[1,2-a]pyridin-2-yl]-1,3,4-thiadiazol-2-yl}-2-fluorophenyl)propanoic acid], for which the EC50 at S1P1 [1], on S1P1 [2] and at hS1P1R (hEdg1) was ≤ 0.1 µM throughout.
Consider `O=C(O)CCc1cc(Cl)c(-c2nnc(-c3cn4cc(C(F)(F)F)cc(Br)c4n3)s2)cc1F` [Example 177, 3-(4-{5-[8-bromo-6-(trifluoromethyl)imidazo[1,2-a]pyridin-2-yl]-1,3,4-thiadiazol-2-yl}-5-chloro-2-fluorophenyl)propanoic acid], for which the EC50 at S1P1 [1], at S1P1 [2] and on hS1P1R (hEdg1) was ≤ 0.1 µM each time.
`OCC(O)COc1cc(Cl)c(-c2noc(-c3cn4cc(C(F)(F)F)cc(Cl)c4n3)n2)cc1Cl` (stereo not drawn) [Example 208, 3-[(2,5-dichloro-4-{5-[8-chloro-6-(trifluoromethyl)imidazo[1,2-a]pyridin-2-yl]-1,2,4-oxadiazol-3-yl}phenyl)oxy]propane-1,2-diol]: the concentration giving a half-maximal response (EC50) at S1P1 [1], at S1P1 [2] and at hS1P1R (hEdg1) was ≤ 0.1 µM each time.
As to `O=C(O)CCc1cc(Cl)c(-c2nc(-c3cn4cc(C(F)(F)F)cc(Cl)c4n3)no2)cc1F` [Example 233, 3-(5-chloro-4-{3-[8-chloro-6-(trifluoromethyl)imidazo[1,2-a]pyridin-2-yl]-1,2,4-oxadiazol-5-yl}-2-fluorophenyl)propanoic acid], the EC50 at S1P1 [1] was ≤ 0.1 µM; on S1P1 [2] it was ≤ 0.1 µM; at hS1P1R (hEdg1) it was 0.1 to 0.5 µM.
Turning to `O=C(O)CCc1cc(Cl)c(-c2noc(-c3cn4cc(C(F)(F)F)cc(Cl)c4n3)n2)cc1Cl` [Example 242, 3-(2,5-dichloro-4-{5-[8-chloro-6-(trifluoromethyl)imidazo[1,2-a]pyridin-2-yl]-1,2,4-oxadiazol-3-yl}phenyl)propanoic acid], the EC50 at S1P1 [1], at S1P1 [2] and at hS1P1R (hEdg1) was ≤ 0.1 µM throughout.
For `OCCOc1cc(Cl)c(-c2noc(-c3cn4cc(C(F)(F)F)cc(Cl)c4n3)n2)cc1F` [Example 263, 2-[(5-chloro-4-{5-[8-chloro-6-(trifluoromethyl)imidazo[1,2-a]pyridin-2-yl]-1,2,4-oxadiazol-3-yl}-2-fluorophenyl)oxy]ethanol], the EC50 on S1P1 [1], at S1P1 [2] and on hS1P1R (hEdg1) was ≤ 0.1 µM throughout.
Take `CC(C)Oc1cc(Cl)c2nc(-c3nc(-c4cc(F)c(CCC(=O)O)cc4Cl)no3)cn2c1` [Example 301, 3-[5-chloro-4-(5-{8-chloro-6-[(1-methylethyl)oxy]imidazo[1,2-a]pyridin-2-yl}-1,2,4-oxadiazol-3-yl)-2-fluorophenyl]propanoic acid]: the half-maximal effective concentration (EC50) is ≤ 0.1 µM at S1P1 [1], ≤ 0.1 µM on S1P1 [2] and 0.1 to 0.5 µM on hS1P1R (hEdg1).
Turning to `O=C(O)CCc1cc(Cl)c(-c2noc(-c3cn4cc(I)cc(Cl)c4n3)n2)cc1F` [Example 302, 3-{5-chloro-4-[5-(8-chloro-6-iodoimidazo[1,2-a]pyridin-2-yl)-1,2,4-oxadiazol-3-yl]-2-fluorophenyl}propanoic acid], the figures for the EC50 on S1P1 [1], on S1P1 [2] and at hS1P1R (hEdg1) were ≤ 0.1 µM, ≤ 0.1 µM and 0.1 to 0.5 µM, respectively.
